In patent US10953027B2, “Active agents and methods of their use for the treatment of metabolic disorders and nonalcoholic fatty liver disease” (Flagship Pioneering Innovations V, Inc., priority 2018, dated 2021):

Experiments:
Male FATZO mice = test: In vivo FATZO DM2/obesity study (Example 5); details: in HFD ad libitum, after 28 days; blood glucose 0-120 minutes
Description: Male FATZO mice (Crown Bio) of 11-12 weeks old were selected for Diabetes Mellitus Type 2 (DM2) and obesity study. Mice were randomized into 9 groups based on body weight and blood glucose level as shown below. Compounds were administered in high fat diet (HFD: D12492) and provided to mice ad libitum until study termination. Body weight was recorded at the baseline and then twice weekly thereafter. Blood glucose level was measured at 0, 15, 30, 60, 90, and 120 minutes at the end of the study.

Male DIO mice = test: In vivo evaluation for glucose disposal and lipidemia in DIO mice (Example 11); details: for Fasting blood glucose levels (time 0 from OGTT): 28 days, 16 hour fast; for change in body weight from baseline: 30 days; for glucose AUC (0-120 min): OGTT day 28, glucose 2.0 g/kg PO; for Cholesterol / HDL / LDL / NEFA / Triglycerides: terminal (fed) serum
Description: The DIO mice were prepared by feeding male C57BL/6 mice a high fat diet (HFD, Research Diets D12492) from 6-14 weeks of age. DIO mice were housed individually and maintained on the HFD through the duration of study. A twelve-hour light cycle was maintained with room temperature maintained at 22-25° C. All of the mice were acclimated to the facility for 5 days prior to starting the study.
Following 5 days of facility acclimation, DIO mice were randomized into 8 groups of 10 based on body weight and blood glucose for assignment to treatment, as shown in Table 9:
All treatments were administered admixed in HFD (Research Diets, New Brunswick N.J.) and were provided ad libitum for 30 days. Drinking water for group 7 was supplemented with 1, 3 Butanediol at 3% concentration.
Body weight was recorded at baseline and twice weekly thereafter. Feed and water intakes were recorded each Monday, Wednesday, and Friday.
Blood samples (<3 μL) were obtained one hour post dose by tail clip at baseline and weekly thereafter for measurement of fed blood glucose by StatStrip. Additional anti-coagulated blood samples (100 μl, EDTA di-potassium salt) were obtained by tail clip one hour post-dose at baseline, day 14 and day 30. Anti-coagulated samples were quick frozen and stored on dry ice.
Animals were subjected to a 16 hour fast for performance of an oral glucose tolerance test (OGTT) on day 28. Blood samples were obtained via tail clip just prior to (8 am) and 15, 30, 60, 90, and 120 minutes post-glucose load (2.0 g/kg, PO) for assay of whole blood glucose (StatStrip). Feed was returned following last sample.
Animals were terminated on day 30-31 using CO2 inhalation and induction of pneumothorax. Terminal blood samples were obtained by cardiac puncture. Whole blood was processed to serum and analyzed for serum cholesterol, triglycerides, high density lipoprotein (HDL), low density lipoprotein (LDL) and non-esterified fatty acids (NEFA) using AU480 clinical analyzer.
Organ weights (liver, spleen, subcutaneous fat, inguinal fat, abdominal fat, and epididymal fat) were recorded. Sections of each fat were frozen or fixed in 4% paraformaldehyde/PBS, pH 6.9; Fat samples were placed on dry ice. Fixed liver samples (4% paraformaldehyde) were sent to Premier Laboratories for H&E staining and scoring for steatosis, inflammation and fibrosis. Spleen samples were prepared in ice cold 5% bovine serum albumin (BSA) in PBS or 4% paraformaldehyde. Sections of brain, heart, lung, and small and large intestine were fixed in 10% formalin.
All data are represented as group mean±SEM. Data were analyzed using JMP (SAS software). All normalizations were calculated using terminal body weight.
Baseline differences among groups were identified using Tukey-Kramer Hsd<0.05. Treatment effects compared to control were determined using Oneway ANOVA (*, p<0.05) followed by Dunnett's test where appropriate.

[1] = Assay 3. Fecal Incubation Stability; format: in vitro ADME; details: 1 or 10 μM, human fecal slurry, anaerobic
HFD-fed C57BL/6 mice = test: In vivo evaluation in HFD-fed C57BL/6 mice (Example 3); details: 6% in HFD ad libitum, 8 week
Description: Animals were allowed free access to food and drinking water for the entire 8 week study. Animals were weighed on a weekly basis, and food and drinking water consumption monitored. Plasma and stool samples were collected at the beginning of the study, mid-study, and day of termination. These samples were used for the measurement of the disease makers.
Disease markers were also assessed in liver tissues collected from mice as follows. Liver tissues from mice were collected, fixed by immersion in 10% neutral buffered formalin. Fixed tissue specimens were sent to a histological processing laboratory (Premier Laboratory, Longmont, Colo.), where they were paraffin embedded, sectioned (approximately 4 μm), mounted, and stained with hematoxylin and eosin (H&E) using standard methods.
Liver sections (2) for each animal were scored from a scan of the H&E-stained slide for inflammation, steatosis (macrovesicular vacuolation) and ballooning ([…] vacuolation) using a modified grading scale based on human biopsy scoring (Brunt et al., Am J Clin Pathol, 128:837-47, 2007). Inflammation was scored 0=no inflammation, 1=minimal (1-3 foci of scattered (lobar) inflammatory cells), 2=mild (3 to 10 scattered foci of inflammatory cells with or without portal/periportal inflammation), 3=moderate (>10 scattered (lobar) foci of inflammatory cells and/or marked portal/periportal inflammation. Steatosis was graded (as in Brunt et al., Am J Clin Pathol, 128:837-47, 2007) as follows: 0=no steatosis, grade 1: ≤33%; grade 2: >33%, <66%; 3: ≥66%. Ballooning was scored as follows: 0=no ballooning, 1=rare/few, and 2=many hepatocytes with microvesicular vacuolation.

Structure (SMILES): CC(=O)Oc1cc(OC(C)=O)c2c(=O)c(OC(C)=O)c(-c3ccc(OC(C)=O)c(OC(C)=O)c3)oc2c1 [Compound 14, [2-acetoxy-4-(3,5,7-triacetoxy-4-oxo-chromen-2-yl)phenyl] acetate]
- OGTT (AUC) (Male FATZO mice): 65323
- Abdominal fat (% BW) (Male DIO mice; 6% in HFD): *0.98 ± 0.2 % BW
- Blood glucose (fed) change compared to baseline (Male DIO mice; 6% in HFD): −23.1±4.9%
- Epididymal fat (% BW) (Male DIO mice; 6% in HFD): *2.6 ± 0.3 % BW
- Inguinal fat (% BW) (Male DIO mice; 6% in HFD): *0.40 ± 0.06 % BW
- Subcutaneous fat (% BW) (Male DIO mice; 6% in HFD): *2.2 ± 0.4 % BW
- Fasting blood glucose levels (time 0 from OGTT) (Male DIO mice; 6% in HFD): 63.1 ± 1.9 mg/dL
- change in body weight from baseline (Male DIO mice; 6% in HFD): −11.9±1.3%
- glucose AUC (0-120 min) (Male DIO mice; 6% in HFD): 25720.5 ± 895.5 mg/dL/min
- Cholesterol (Male DIO mice; 6% in HFD): *121.5 ± 9.4 mg/dL
- HDL (Male DIO mice; 6% in HFD): 79.4 ± 4.0 mg/dL
- LDL (Male DIO mice; 6% in HFD): *4.9 ± 0.4 mg/dL
- NEFA (Male DIO mice; 6% in HFD): *0.69 ± 0.03 mEq/L
- Triglycerides (Male DIO mice; 6% in HFD): *64.0 ± 2.8 mg/dL

Structure (SMILES): CC(=O)Oc1cc(OC(C)=O)c2c(c1)O[C@H](c1cc(OC(C)=O)c(OC(C)=O)c(OC(C)=O)c1)[C@H](OC(=O)c1cc(OC(C)=O)c(OC(C)=O)c(OC(C)=O)c1)C2 [Compound 4, [(2R,3R)-5,7-diacetoxy-2-(3,4,5-triacetoxyphenyl)chroman-3-yl] 3,4,5-triacetoxybenzoate]
- Assay 3 (% Remaining at 24 h) [1]: A (A: <25% of the tested compound remaining)
- OGTT (AUC) (Male FATZO mice): 59443
- Abdominal fat (% BW) (Male DIO mice; 0.6% in HFD): 2.1 ± 0.2 % BW
- Blood glucose (fed) change compared to baseline (Male DIO mice; 0.6% in HFD): −15.6±3.1%
- Epididymal fat (% BW) (Male DIO mice; 0.6% in HFD): 4.7 ± 0.2 % BW
- Inguinal fat (% BW) (Male DIO mice; 0.6% in HFD): 0.99 ± 0.17 % BW
- Subcutaneous fat (% BW) (Male DIO mice; 0.6% in HFD): 4.9 ± 0.4 % BW
- change in body weight from baseline (Male DIO mice; 0.6% in HFD): 13.5±2.0%
- Abdominal fat (% BW) (Male DIO mice; 2% in HFD): 2.4 ± 0.1 % BW
- Blood glucose (fed) change compared to baseline (Male DIO mice; 2% in HFD): −9.0±3.9%
- Epididymal fat (% BW) (Male DIO mice; 2% in HFD): 4.5 ± 0.2 % BW
- Inguinal fat (% BW) (Male DIO mice; 2% in HFD): 0.93 ± 0.08 % BW
- Subcutaneous fat (% BW) (Male DIO mice; 2% in HFD): 5.5 ± 0.5 % BW
- change in body weight from baseline (Male DIO mice; 2% in HFD): 16.4±1.1%
- Abdominal fat (% BW) (Male DIO mice; 6% in HFD): 2.2 ± 0.1 % BW
- Blood glucose (fed) change compared to baseline (Male DIO mice; 6% in HFD): −4.3±3.0%
- Epididymal fat (% BW) (Male DIO mice; 6% in HFD): 4.7 ± 0.3 % BW
- Inguinal fat (% BW) (Male DIO mice; 6% in HFD): 0.95 ± 0.08 % BW
- Subcutaneous fat (% BW) (Male DIO mice; 6% in HFD): 5.0 ± 0.6 % BW
- change in body weight from baseline (Male DIO mice; 6% in HFD): 15.7±1.0%
- Cholesterol (Male DIO mice; 0.6% in HFD): 193.9 ± 11.0 mg/dL
- HDL (Male DIO mice; 0.6% in HFD): 94.4 ± 4.0 mg/dL
- LDL (Male DIO mice; 0.6% in HFD): 9.2 ± 0.9 mg/dL
- NEFA (Male DIO mice; 0.6% in HFD): 1.2 ± 0.04 mEq/L
- Triglycerides (Male DIO mice; 0.6% in HFD): 97.7 ± 10.1 mg/dL
- Cholesterol (Male DIO mice; 2% in HFD): 208.2 ± 7.2 mg/dL
- HDL (Male DIO mice; 2% in HFD): 99.0 ± 3.6 mg/dL
- LDL (Male DIO mice; 2% in HFD): 10.7 ± 0.9 mg/dL
- NEFA (Male DIO mice; 2% in HFD): 1.2 ± 0.06 mEq/L
- Triglycerides (Male DIO mice; 2% in HFD): 91.1 ± 8.4 mg/dL
- Cholesterol (Male DIO mice; 6% in HFD): 200.4 ± 14.2 mg/dL
- HDL (Male DIO mice; 6% in HFD): 91.5 ± 5.1 mg/dL
- LDL (Male DIO mice; 6% in HFD): 12.3 ± 0.9 mg/dL
- NEFA (Male DIO mice; 6% in HFD): 1.1 ± 0.04 mEq/L
- Triglycerides (Male DIO mice; 6% in HFD): 89.9 ± 5.7 mg/dL
- ballooning score (FIG. 4) (HFD-fed C57BL/6 mice): lower ballooning score than the animals fed a high fat diet only
- glucose tolerance (FIG. 2) (HFD-fed C57BL/6 mice): exceeded that of animals in the HFD+rosiglitazone
- histological analysis of the livers: steatosis (FIGS. 5A-5G) (HFD-fed C57BL/6 mice): significantly lower steatosis
- percentage change in weight (FIG. 1) (HFD-fed C57BL/6 mice): underwent weight loss
- steatosis score (FIG. 3) (HFD-fed C57BL/6 mice): lower steatosis score than the animals fed high fat diet only

Structure (SMILES): CC(=O)O[C@H]1OC[C@H](OC(C)=O)[C@H](OC(C)=O)[C@H]1OC(C)=O [Compound 53, (2R,3R,4S,5S)-tetrahydro-2H-pyran-2,3,4,5-tetrayl Tetraacetate]
- Assay 3 (% Remaining at 24 h) [1]: A (A: <25% of the tested compound remaining)
- Abdominal fat (% BW) (Male DIO mice; 5% in HFD): *1.9 ± 0.2 % BW
- Blood glucose (fed) change compared to baseline (Male DIO mice; 5% in HFD): −12.5±2.2%
- Epididymal fat (% BW) (Male DIO mice; 5% in HFD): 4.1 ± 0.4 % BW
- Inguinal fat (% BW) (Male DIO mice; 5% in HFD): 0.84 ± 0.11 % BW
- Subcutaneous fat (% BW) (Male DIO mice; 5% in HFD): 4.0 ± 0.6 % BW
- Fasting blood glucose levels (time 0 from OGTT) (Male DIO mice; 5% in HFD): 90.8 ± 5.7 mg/dL
- change in body weight from baseline (Male DIO mice; 5% in HFD): −1.8±3.2%
- glucose AUC (0-120 min) (Male DIO mice; 5% in HFD): 30151.5 ± 1680 mg/dL/min
- Cholesterol (Male DIO mice; 5% in HFD): 163.3 ± 10.3 mg/dL
- HDL (Male DIO mice; 5% in HFD): 88.9 ± 2.7 mg/dL
- LDL (Male DIO mice; 5% in HFD): *6.5 ± 0.7 mg/dL
- NEFA (Male DIO mice; 5% in HFD): *0.98 ± 0.05 mEq/L
- Triglycerides (Male DIO mice; 5% in HFD): 84.8 ± 5.5 mg/dL
